Several values for one entry are separate records, joined by “and”; a condition that tells them apart may be missing. Equal values may be shown once.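 Exposure lasted 48 hours, with cells grown in 96-well plates and compounds tested at five concentrations. The concentration for 50% growth inhibition is given as GI50.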 Activity calls are given as the source filed them. Rule as the data show it: active = GI50 up to about 1.1 µM and inactive = higher.
How the values were obtained:
Assay in all cases: NCI-60 cell line screen, 48 h
[1] = tested on: SK-OV-3
[2] = tested on: A498
[3] = tested on: T47D
[4] = tested on: MDA-MB-435
[5] = tested on: HOP-92
[6] = tested on: SNB-75
[7] = tested on: SW-620
[8] = tested on: U-251
[9] = tested on: HT-29
[10] = tested on: SF-539
[11] = tested on: KM12
[12] = tested on: NCI-H23
[13] = tested on: K562
[14] = tested on: MCF7
[15] = tested on: SK-MEL-2
[16] = tested on: HL-60
[17] = tested on: RXF 393
[18] = tested on: SR
[19] = tested on: COLO 205
[20] = tested on: SK-MEL-28
[21] = tested on: CAKI-1
[22] = tested on: OVCAR-4
[23] = tested on: TK-10
[24] = tested on: HOP-62
[25] = tested on: IGROV-1
[26] = tested on: EKVX
[27] = tested on: SNB-19
[28] = tested on: MOLT-4
[29] = tested on: CCRF-CEM
[30] = tested on: SF-268
[31] = tested on: HCT-15
[32] = tested on: MDA-MB-231
[33] = tested on: OVCAR-5
[34] = tested on: SF-295
[35] = tested on: M14
[36] = tested on: RPMI-8226
[37] = tested on: A549
[38] = tested on: UACC-62
[39] = tested on: 786-0
[40] = tested on: ACHN
[41] = tested on: UO-31
[42] = tested on: OVCAR-8
[43] = tested on: NCI/ADR-RES
[44] = tested on: MDA-N
[45] = tested on: NCI-H226
[46] = tested on: SN12C
[47] = tested on: Malme-3M
[48] = tested on: PC-3
[49] = tested on: DU-145
[50] = tested on: OVCAR-3
[51] = tested on: NCI-H522
[52] = tested on: SK-MEL-5
[53] = tested on: HCT-116
[54] = tested on: Hs-578T
[55] = tested on: LOX IMVI
[56] = tested on: NCI-H460
[57] = tested on: UACC-257
[58] = tested on: HCC 2998

Measured: GI50

Nc1nc(Nc2ccccc2)sc1C(=O)c1ccc(Cl)cc1
inactive: [1] 2.46 µM | [2] 2.4 µM | [3] > 95.1 µM | [4] 1.3 µM | [5] 3.39 µM | [6] 2.48 µM | [7] 4.13 µM | [8] 2.69 µM | [9] > 100 µM | [10] > 100 µM | [11] > 100 µM | [12] 8.17 µM | [13] > 100 µM | [14] 4.39 µM | [15] 15.1 µM | [16] > 100 µM | [17] 2.69 µM | [18] 1.36 µM | [19] > 100 µM | [20] > 100 µM | [23] 5.12 µM | [24] 2.88 µM | [25] 3.72 µM | [26] > 58.9 µM | [27] 3.24 µM | [28] 8.99 µM | [29] > 100 µM | [30] 1.35 µM | [32] 4.3 µM | [33] > 100 µM | [34] 3.7 µM | [35] > 100 µM
active: [21] 0.71 µM | [22] 0.748 µM
> 100 µM: [31]

O=C(Nc1ccc([N+](=O)[O-])cc1)c1ccc([N+](=O)[O-])cc1
inactive: [6] 48.9 µM and 70.6 µM | [34] 85.9 µM and 50.2 µM

COc1ccc(/C=C2\NC(=S)N(CN3CCCCC3)C2=O)cc1
24.6 µM: [31]
inactive: [1] > 100 µM | [36] 27.1 µM | [2] 51.9 µM | [4] 52.7 µM | [5] 76 µM | [6] 21 µM | [7] 29.3 µM | [37] 72.1 µM | [8] 61.7 µM | [9] 18.3 µM | [38] 44.7 µM | [39] 36.6 µM | [11] 73.1 µM | [12] 77.1 µM | [13] 34.5 µM | [14] 21.8 µM | [40] 33.9 µM | [15] > 100 µM | [41] 37.1 µM | [42] 15.4 µM | [18] 38.1 µM | [43] 26.9 µM | [19] 35.2 µM | [44] 70.1 µM | [45] 42.2 µM | [20] > 100 µM | [46] > 100 µM | [22] 20 µM | [23] 83.6 µM | [24] > 100 µM | [25] 44.2 µM | [26] 34.4 µM | [27] 37 µM | [47] 30.3 µM | [28] 28.6 µM | [29] 39.5 µM | [48] 78.7 µM | [49] 71 µM | [50] 71.6 µM | [51] 30.7 µM | [30] 18.2 µM | [32] > 100 µM | [52] 36.1 µM | [53] 34.6 µM | [33] > 100 µM | [54] 17.8 µM | [34] 69.7 µM | [35] 50.7 µM | [55] 30.5 µM

Oc1cc(-c2ccc(Cl)cc2)cn2c1nc1ccccc12
inactive: [56] 5.21 µM | [1] > 100 µM | [2] > 100 µM | [3] > 100 µM | [4] 2.2 µM | [5] > 100 µM | [6] 16.1 µM | [7] 6.46 µM | [8] 6.59 µM | [9] > 100 µM | [10] > 100 µM | [38] 29.4 µM | [39] 25.8 µM | [11] 5.47 µM | [12] > 100 µM | [13] 2.3 µM | [57] > 100 µM | [14] > 100 µM | [16] 2.66 µM | [41] > 100 µM | [42] 17.6 µM | [17] > 100 µM | [43] > 100 µM | [19] > 100 µM | [44] 2.99 µM | [45] > 100 µM | [20] > 100 µM | [21] > 100 µM | [46] > 100 µM | [22] > 100 µM | [23] > 100 µM | [24] 31.3 µM | [25] 9.55 µM | [26] > 100 µM | [27] 52.4 µM | [47] > 100 µM | [48] > 100 µM | [49] > 100 µM | [50] > 100 µM | [51] 2.09 µM | [30] > 100 µM | [32] > 100 µM | [53] > 100 µM | [54] 36.6 µM | [34] > 100 µM | [35] > 100 µM | [55] 1.88 µM
> 100 µM: [31]

COc1cc2c(c(OC)c1OC)-c1ccc(SC)cc1C(O)CC2 (stereo not drawn)
active: [56] < 0.01 µM | [36] < 0.01 µM | [4] < 0.01 µM | [6] < 0.01 µM | [7] < 0.01 µM | [37] < 0.01 µM | [10] < 0.01 µM | [38] < 0.01 µM | [39] < 0.01 µM | [11] < 0.01 µM | [12] < 0.01 µM | [13] < 0.01 µM | [14] < 0.01 µM | [40] < 0.01 µM | [16] < 0.01 µM | [18] < 0.01 µM | [19] < 0.01 µM | [44] 0.19 µM | [21] 0.071 µM | [46] 0.427 µM | [25] < 0.01 µM | [58] < 0.01 µM | [27] < 0.01 µM | [47] 0.0132 µM | [28] < 0.01 µM | [29] < 0.01 µM | [48] < 0.01 µM | [49] < 0.01 µM | [50] < 0.01 µM | [51] < 0.01 µM | [30] < 0.01 µM | [32] 0.394 µM | [52] < 0.01 µM | [53] < 0.01 µM | [34] < 0.01 µM | [35] < 0.01 µM | [55] < 0.01 µM
inactive: [2] 12.1 µM | [3] > 100 µM | [5] > 100 µM | [15] > 100 µM | [20] 55.6 µM | [22] 1.94 µM | [23] 41 µM | [26] 2.54 µM | [33] 14.6 µM
< 0.01 µM: [31]

COCCN(C(=O)c1ccccc1)C1CCC2(SCCS2)c2[nH]c3ccccc3c21 (stereo not drawn)
28.8 µM: [31]
inactive: [56] 29.6 µM | [36] 20.2 µM | [2] 45.7 µM | [4] 20.4 µM | [5] 20.1 µM | [6] 70.1 µM | [7] 33.3 µM | [37] 26.2 µM | [8] 46.9 µM | [9] 49.4 µM | [10] 85.5 µM | [39] 60.8 µM | [11] 28.5 µM | [12] 51.5 µM | [13] 15.9 µM | [57] 59.2 µM | [14] 37.5 µM | [40] 37.5 µM | [16] 14.9 µM | [41] 40.7 µM | [42] 25.6 µM | [17] 20.7 µM | [18] 29.7 µM | [43] 30.2 µM | [19] 37.7 µM | [45] > 100 µM | [20] 74 µM | [21] 79.6 µM | [46] 40.2 µM | [23] 79.1 µM | [24] > 100 µM | [25] 34.5 µM | [58] 51.4 µM | [26] 30.3 µM | [27] 89.5 µM | [47] 36.2 µM | [28] 18.5 µM | [29] 29.8 µM | [48] 20 µM | [49] > 100 µM | [50] 51.2 µM | [51] 23.3 µM | [30] > 100 µM | [32] 57.7 µM | [52] 22.9 µM | [53] 37.8 µM | [33] > 100 µM | [54] 29.4 µM | [34] 42.7 µM | [55] 57.7 µM

Source: ChEMBL document CHEMBL1201862, “PubChem BioAssay data set” (2004)
